EP2678315B1, “(Pyridin-4-yl)benzylamides as allosteric modulators of alpha 7 nAChR” (Janssen Pharmaceutica, N.V., priority 2011, dated 2012)

Biological target: T1, human alpha 7-wt nAChR (Homo sapiens, UniProt P36544)
T1 construct: expressed in transfected cells
Assay: Ca2+ flux imaging (FDSS) (protocol B)
Type: cell-based
Conditions: for EC50: Ca2+ assay as described in D.1, read-out: pEC50 (converted); for Emax: read-out: % Efficacy
Description: Example D.1 : Ca^2+ flux imaging (FDSS) (protocol B)
• a) Assay buffer Hanks buffered saline solution (HBSS, Invitrogen, Belgium), supplemented with 10 mM HEPES (Invitrogen, Belgium), CaCl2 to a final concentration of 5 mM, 0.1 % Bovine serum albumin (Sigma-Aldrich NV, Belgium). • b) Calcium-sensitive dye - Fluo-4AM Fluo-4AM (Molecular Probes, USA) was dissolved in DMSO containing 10% Pluronic acid (Molecular Probes, USA) to give a stock solution which was diluted in assay buffer supplemented with 5 mM probenicid (Sigma, Aldrich NV, Belgium) to give a final concentration of 2 µM • c) 384-well plates Black-sided, transparent bottomed 384 well plates coated with poly-D-lysine, PDL pre-coated (Coming, Incorporated, USA) • d) Calcium flux measurement A Functional drug screening system (FDSS, Hamamatsu) was used to measure intracellular free-calcium flux signals.
Monolayers of human alpha 7-wt nAChR-expressing cells were grown in black-sided, transparent bottomed 384 well plates coated with PDL for 24 hours prior to loading with a fluorescent calcium indicator, fluo-4AM for up to 120 minutes.
PAM activity was detected in real time by applying the compounds to be tested to the loaded cells along with an alpha 7 nicotinic receptor agonist during constant monitoring of cellular fluorescence in a FDSS. Compounds giving peak fluorescent responses greater than the response due to agonist alone, were consideted to be alpha 7 nAChR PAMs. The alpha 7 nicotinic receptor agonist was choline, applied at a sub-maximal concentration of 100 µM. In a further setting of the present invention the compounds were applied prior to the alpha 7 nicotinic receptor agonist, in a particular 10 minutes prior to the agonist.
A control response to choline was calculated on each plate from the difference in peak in fluorescence in wells receiving either choline or assay buffer alone. Compounds of the present invention were tested at a concentration range from 0.01 µM to 30 µM. Compounds were considered to have an interesting activity when they potentiated the choline signal at least with 200 % when tested at a concentration of 30 µM (the efficacy of 100 µM choline was defined as 100% in the absence of a PAM). An EC50 (or pEC50) was determined as a concentration relating to half the maximal effect, when a clear sigmoidal curve with top plateau was obtained.

T1 sequence (P36544 23-502): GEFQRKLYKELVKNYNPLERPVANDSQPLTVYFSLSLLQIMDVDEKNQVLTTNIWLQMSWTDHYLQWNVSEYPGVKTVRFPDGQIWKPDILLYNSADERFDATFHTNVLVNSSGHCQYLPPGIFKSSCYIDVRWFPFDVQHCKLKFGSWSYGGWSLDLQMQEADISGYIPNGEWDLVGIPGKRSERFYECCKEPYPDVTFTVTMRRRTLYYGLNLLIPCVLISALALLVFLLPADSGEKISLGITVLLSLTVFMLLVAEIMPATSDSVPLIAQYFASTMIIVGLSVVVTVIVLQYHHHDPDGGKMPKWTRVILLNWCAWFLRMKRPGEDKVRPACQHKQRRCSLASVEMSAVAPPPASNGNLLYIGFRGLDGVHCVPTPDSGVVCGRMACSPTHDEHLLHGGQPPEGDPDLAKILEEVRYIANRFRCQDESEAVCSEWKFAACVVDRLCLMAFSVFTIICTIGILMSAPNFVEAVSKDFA

EC50	Structure (SMILES)	Emax
12.6 nM	Cc1cc(-c2c(F)cc(N3C[C@@H](C)O[C@@H](C)C3)cc2CNC(=O)CC(C)C)ccn1 [Compound 92]	–
575 nM	Cc1cc(-c2ccc(N3C[C@@H](C)O[C@@H](C)C3)c(F)c2CNC(=O)C(C)C)cc(C)n1 [Compound 41]	–
1580 nM	Cc1cc(-c2ccc(C3C[C@@H](C)O[C@@H](C)C3)c(F)c2CNC(=O)C2CC2)cc(C)n1 (relative stereo) [Compound 54]	–
525 nM	Cc1cc(-c2c(F)cc(N3C[C@@H](C)O[C@@H](C)C3)cc2CNC(=O)c2cc(C)on2)ccn1 [Compound 90]	–
977 nM	Cc1cc(-c2ccc(N3C[C@@H](C)O[C@@H](C)C3)c(F)c2CNC(=O)c2cc(C)on2)cc(C)n1 [Compound 38]	–
295 nM	Cc1cc(-c2ccc(N3C[C@@H](C)O[C@@H](C)C3)c(F)c2CNC(=O)CC2CC2)cc(C)n1 [Compound 37]	–

Structure (SMILES)	EC50	Emax
Cc1cc(-c2ccc(N3C[C@H](C)C[C@H](C)C3)cc2CNC(=O)c2cc(C)on2)cc(C)n1 [Compound 18]	288 nM	136%
Cc1cc(-c2c(F)cc(N3CCCC(C(F)(F)F)C3)cc2CNC(=O)C(C)C2CC2)cc(C)n1 (stereo not shown) [Compound 93]	36.3 nM	736%
Cc1cc(-c2ccc(N3CCOCC3)cc2CNC(=O)C(C)C)cc(C)n1 [Compound 29]	813 nM	256%
Cc1cc(-c2ccc(N3C[C@H](C(F)(F)F)C[C@H](C(F)(F)F)C3)cc2CNC(=O)C(C)C)cc(C)n1 [Compound 23]	15.8 nM	322%
Cc1cc(-c2c(F)cc(N3CCCC(C(F)(F)F)C3)cc2CNC(=O)c2cc(C)on2)cc(C)n1 (stereo not shown) [Compound 94]	195 nM	428%
